Laboratory results: paper PMC9462664, “Preparation and identification of anti-breast cancer cells peptides released from yak milk casein” (Frontiers in Nutrition, 2022)
No end group written: not given here.

Assays:
[1] = system: pepsin and trypsin; assay: Stability against simulated gastrointestinal digestion; type: in vitro ADME; details: peptide 5 mg/mL, pepsin pH 1.2, 37°C, 2 h, then trypsin pH 8, 37°C, enzyme:peptide 1:100 (w/w), RP-HPLC, new peaks digested vs undigested
Procedure: Stability of peptides against simulated gastrointestinal digestion was performed according to the method outlined previously with slight modification ([19]). Briefly, peptide solution (5 mg/mL) was digested by pepsin (pH 1.2, 37°C) for 2 h. Then the pH of the resulting solution was altered to eight with NaOH (1.0°M) to inactivate pepsin, and the peptides solution was further digested by trypsin (2 h, 37°C). Finally, trypsin was inactivated by a hot water bath (95°C, 10 min). The ratio of enzyme to peptide was 1:100 (w/w) in the two digesting processes. The digested and undigested samples were loaded into HPLC (1260 Infinity, Agilent, Santa Clara, CA, United States), respectively, to evaluate the stability of the peptides. […]

[2] = system: MCF7 cells; type: cell-based
Procedure: (§1) The culture medium of MDA-MB-231 and MCF7 cells were DMEM containing 10% FBS and 1% AAC. The culture medium of MCF10A was DMEM/F12 containing CT (100°ng/mL), EGF (20°ng/mL), HS (5%), hydrocortisone (0.5°μg/mL), and insulin (10°ug/mL). All the cells were incubated using an incubator (MCO-20AIC, SANYO, Japan) with 5% CO2 and 95% humidity at 37°C.
(§2) Cell activity inhibition was conducted using a CCK8 kit according to the procedure offered by the manufacturer. The trypsinized cells were transferred into the 96-well plate (8,000 cells/well) and cultured for 24 h, then they were incubated with PBS (Control), YMCH (250°μg/mL) or synthetic peptides (0, 62.5, 125, 250, 500, and 1,000°μg/mL) for 48 h or 24–72 h. The CCK8 agent (20°μL) was pipetted into the well followed by incubation (37 °C, 4 h). The absorbance of the medium was acquired at 450 nm using a microplate reader (Multiskan Spectrum, Thermo, Waltham, MA, United States). Finally, according to the below formulae, the cell viability and its inhibition rate were calculated.
(§3) Cellviability(%)=Absorbanceofmediumfromthetreatmentgroup/Absorbanceofmediumfromthecontrolgroup×100
(§4) Inhibitionrateofcellviability(%)=(1Absorbanceofmediumfromthetreatmentgroup/Absorbanceofmediumfromthecontrolgroup)×100

[3] = system: MDA-MB-231 cells; type: cell-based
Procedure: as §1, §2, §3, §4

[4] = system: MCF7 cells; assay: Cell cycle determination (PI, flow cytometry); type: cell-based; details: 250 μg/mL, 48 h
Procedure: (§5) Cell cycle determination was conducted using a cell cycle kit according to its instructions. Trypsinized cells (MDA-MB-231 or MCF7) were pipetted into the 6-well plate and cultured. When cells confluence reached 50%, peptides were added to the wells, and the treatment lasted 48 h. The cells were harvested and washed with PBS. After being fixed by cold 75% ethanol, cells were treated with RNase A followed by incubation with PI. Finally, the cell cycles of samples were measured by a BD flow cytometer (FACS101, Becton, Dickinson and Company, Franklin Lakes, NJ, United States).
(§6) FIGURE 6 TPVVVPPFL elicited cell arrest of mammary carcinoma cells. MCF7 cells were incubated with TPVVVPPFL for 48 h at the concentration of 250°μg/mL. MDA-MB-231 cells were incubated with TPVVVPPFL for 48 h at the concentration of 500°μg/mL. The cell cycle distributions were analyzed using flow cytometry after treatment with PI.

[5] = system: MDA-MB-231 cells; assay: Cell cycle determination (PI, flow cytometry); type: cell-based; details: 500 μg/mL, 48 h
Procedure: as §5, §6

[6] = system: MCF7 cells; assay: Cell apoptosis determination (Annexin V/PI, flow cytometry); type: cell-based; details: 250 μg/mL, 48 h, Annexin-V and PI, mean ± SD
Procedure: (§7) Cell apoptosis determination was conducted by Annexin V staining of externalized phosphatidylserine in apoptotic cells using a cell apoptosis kit. Then the proportion of the apoptotic cells was analyzed by a BD flow cytometry (FACS101, Becton, Dickinson and Company, Franklin Lakes, NJ, United States).
(§8) FIGURE 7 TPVVVPPFL induced morphology alteration (A) and apoptosis of mammary carcinoma cells (B). MCF7 and MDA-MB-231 cells were incubated with TPVVVPPFL for 48 h at the concentration of 250 and 500°μg/mL, respectively. The image of the two cells was acquired by the inverted microscope, and the apoptotic cells were measured using a flow cytometry after treatment with Annexin-V and PI.

[7] = system: MDA-MB-231 cells; assay: as above; type: cell-based; details: 500 μg/mL, 48 h, Annexin-V and PI, mean ± SD
Procedure: as §7, §8

Sequence	stability against simulated gastrointestinal digestion [1]	IC50 [2]	IC50 [3]	cell cycle arrest [4]	cell cycle arrest [5]	apoptosis rate [6]	apoptosis rate [7]
NQFLPYPY [NQFLPYPY]	stable in the simulated digestion condition						
TPVVVPPFL [TPVVVPPFL]	stable in the simulated digestion condition	250 µg/mL	500 µg/mL	G2/M arrest	S arrest	48.37 ± 2.74%	35.11 ± 2.95%
VAPFPEVFGK [VAPFPEVFGK]	hydrolyzed						
